In US11044911B2, “Phenoxyurea compound and pest control agent” (Nippon Soda Co., Ltd., priority 2018, dated 2021):

Assays:
[1] = test system: drug-resistant strains of Tetranychus urticae; assay: Test Example 13: efficacy test against drug-resistant strains of Tetranychus urticae; format: in vivo; settings: 10 days
Excerpt: (§1) 5 parts by weight of the compound of the present invention, 93.6 parts by weight of dimethylformamide and 1.4 parts by weight of polyoxyethylene alkylaryl ether were mixed and dissolved to prepare an emulsion (I) containing 5% of an active ingredient.
(§2) Insecticidal rate (%)=(number of dead insects/number of tested insects)×100
(§3) Efficacy tests against seven drug-resistant strains of Tetranychus urticae collected from various parts of Japan (one strain from Shizuoka Prefecture, Aomori Prefecture and Fukuoka Prefecture, and two strains from Chiba Prefecture and Nagano Prefecture) were conducted in the following manner.
(§4) 8 adult females of drug-resistant strains of spider mites were inoculated on kidney bean plant leaves placed in a petri dish. Then, the emulsion (I) was diluted with water so that the concentration of the compound was 37.5 ppm or 9.4 ppm to obtain a chemical. This chemical was sprayed onto the kidney bean plant leaves with a rotary spray tower. The kidney bean plant leaves were placed in a thermostatic chamber at a temperature of 25° C. and a humidity of 65%. The life and death of the spider mite were investigated when 10 days had passed after the spraying, and the insecticidal rate was calculated.

cucumber plants = assay: Test Example 14: phytotoxicity test on cucumber plants; format: in vivo; settings: 300 ppm spray; for Cucumber; 1.5-leaf stage After 14 days Leaf Phytotoxicity index: index 0 (no phytotoxicity) to 10 (plant death)
Protocol: A test for phytotoxicity on cucumber plants was conducted as follows. A sufficient amount of chemical having a compound concentration of 300 ppm was sprayed onto cucumber plants at the 1.5-leaf stage using a glass nozzle, and they were left to stand in a greenhouse. The presence or absence of phytotoxicity was investigated after being left to stand for 14 days.
(§5) The symptoms of phytotoxicity were deformation and discoloration of leaves.

eggplants = assay: Test Example 14: phytotoxicity test on eggplants; format: in vivo, eggplant; settings: 300 ppm spray; for Eggplant; 6- to 7-leaf stage After 14 days Leaf Phytotoxicity index: index 0 (no phytotoxicity) to 10 (plant death)
Excerpt: A sufficient amount of chemical having a compound concentration of 300 ppm was sprayed onto eggplants at the 6- to 7-leaf stage using a glass nozzle, and they were left to stand in a greenhouse. The presence or absence of phytotoxicity was investigated after being left to stand for 14 days.
as §5

[2] = test system: drug-resistant strain of Panonychus citri collected in Wakayama Prefecture; assay: Test Example 13: efficacy test against drug-resistant strain of Panonychus citri; format: in vivo; settings: 10 days, corrected insecticidal rate
Protocol: as §1, §2
(§6) In addition, an efficacy test against a drug-resistant strain of Panonychus citri collected in Wakayama Prefecture was conducted in the following manner.
8 adult females of a drug resistant strain of Panonychus citri were inoculated on mandarin orange leaves placed in a petri dish. Then, the emulsion (I) was diluted with water so that the concentration of the compound was 37.5 ppm or 9.4 ppm to obtain a chemical. This chemical was sprayed onto the mandarin orange leaves with a rotary spray tower. The mandarin orange leaves were placed in a thermostatic chamber at a temperature of 25° C. and a humidity of 65%. The life and death of the spider mite were investigated when 10 days had passed after the spraying, and the corrected insecticidal rate was calculated.

Tetranychus urticae = assay: Test Example 10: efficacy test against Tetranychus urticae (soil irrigation test); format: in vivo; settings: 25 ml of 400 ppm, strawberry seedling, 19 days after inoculation
Protocol: as §1
The emulsion (I) was diluted with tap water to prepare a drug solution having a concentration of 400 ppm. A plastic potted strawberry seedling was subjected to a plant foot irrigation treatment with 25 ml of the drug solution, and placed in a thermostatic chamber at a temperature of 25° C. and a humidity of 60%. Three days after the irrigation treatment, 15 adult females of Tetranychus urticae were inoculated on each seedling. The number of surviving insects 19 days after inoculation was investigated, and the control value was obtained by the following formula. The test was repeated twice. Control value (%)=100−{(Nt)/(Nc)×100}
The letters in the formula represent the following.
Nc: Number of surviving insects in the untreated group
Nt: Number of surviving insects in the treated group

[3] = test system: drug resistant strains of spider mites; assay: Test Example 13: summary over all drug resistant strains of spider mites; format: in vivo, Tetranychus urticae, Panonychus citri; settings: 9.4 ppm, all strains tested
Protocol: as §3, §4, §6
8 adult females of a drug resistant strain of Panonychus citri were inoculated on mandarin orange leaves placed in a petri dish. […] The life and death of the spider mite were investigated when 10 days had passed after the spraying, and the corrected insecticidal rate was calculated.

Structure (SMILES) | insecticidal rate, Low-susceptible Tetranychus urticae 1 from Nagano Prefecture ([1]; 9.4 ppm) [%] | insecticidal rate, Low-susceptible Tetranychus urticae 2 from Chiba Prefecture ([1]; 9.4 ppm) [%] | insecticidal rate, Low-susceptible Tetranychus urticae 2 from Nagano Prefecture ([1]; 9.4 ppm) [%] | insecticidal rate, Low-susceptible Tetranyclus urticae 1 from Chiba Prefecture ([1]; 9.4 ppm) [%] | insecticidal rate, Low-susceptible Tetranychus urticae 1 from Nagano Prefecture ([1]; 37.5 ppm) [%] | insecticidal rate, Low-susceptible Tetranychus urticae 2 from Chiba Prefecture ([1]; 37.5 ppm) [%] | insecticidal rate, Low-susceptible Tetranychus urticae 2 from Nagano Prefecture ([1]; 37.5 ppm) [%] | insecticidal rate, Low-susceptible Tetranyclus urticae 1 from Chiba Prefecture ([1]; 37.5 ppm) [%] | Cucumber; 1.5-leaf stage After 14 days Leaf Phytotoxicity index (cucumber plants; Repetition A) | Cucumber; 1.5-leaf stage After 14 days Leaf Phytotoxicity index (cucumber plants; Repetition B) | Eggplant; 6- to 7-leaf stage After 14 days Leaf Phytotoxicity index (eggplants; Repetition A) | Eggplant; 6- to 7-leaf stage After 14 days Leaf Phytotoxicity index (eggplants; Repetition B) | insecticidal rate, Low-susceptible Tetranychus urticae from Aomori Prefecture ([1]; 9.4 ppm) [%] | insecticidal rate, Low-susceptible Tetranychus urticae from Aomori Prefecture ([1]; 37.5 ppm) [%] | insecticidal rate, Low-susceptible Panonychus citri from Wakayama Prefecture ([2]; 9.4 ppm) [%] | insecticidal rate, Low-susceptible Panonychus citri from Wakayama Prefecture ([2]; 37.5 ppm) [%] | insecticidal rate, Low-susceptible Tetranychus urticae from Fukuoka Prefecture ([1]; 9.4 ppm) [%] | insecticidal rate, Low-susceptible Tetranychus urticae from Fukuoka Prefecture ([1]; 37.5 ppm) [%] | also measured
CCN(Oc1cc(Cl)cc(Br)c1)C(=O)NC(C)(C)C(=O)NCC(F)(F)F [Compound (D)] | 73 | 72 | 45 | 32 | 99 | 87 | 96 | 77 | 5 | 7 | 3 | 3 |  |  |  |  |  |  | 
CCN(Oc1cc(Br)nc(Br)c1)C(=O)NC(C)(C)C(=O)NCC(F)(F)F [Compound (G)] | 78 | 58 | 70 | 53 | 96 | 91 | 88 | 98 | 2 | 2 | 2 | 2 | 66 | 97 | 60 | 95 |  |  | 
CCN(Oc1ccnc(C(F)(F)F)c1)C(=O)NC(C)(C)C(=O)NCC(F)(F)F [Compound (H)] |  |  |  |  |  |  |  |  |  |  | 2 | 2 |  |  | 78 | 96 | 45 | 96 | 
CCN(Oc1cc(Br)cc(C(F)(F)F)c1)C(=O)NC(C)(C)C(=O)NCC(F)(F)F [Compound 1-1, 2-{3-[3-Bromo-5-(trifluoromethyl)phenoxy]-3-ethylureido}-2-methyl-N-(2,2,2-trifluoroethyl)propanamide] | 100 | 97 | 99 | 100 | 100 | 100 | 100 | 100 | 0 | 0 | 0 | 0 | 93 | 100 | 99 | 100 | 96 | 99 | control value against Tetranychus urticae (Tetranychus urticae): ≥ 90%; insecticidal rate, Low-susceptible Tetranychus urticae from Shizuoka Prefecture ([1]; 9.4 ppm): 96%; insecticidal rate, Low-susceptible Tetranychus urticae from Shizuoka Prefecture ([1]; 37.5 ppm): 100%; phytotoxicity on cucumber plants (cucumber plants; 14 days): no phytotoxicity; phytotoxicity on eggplants (eggplants; 14 days): no phytotoxicity; efficacy against all drug resistant strains of spider mites [3]: ≥ 90
